Experimental data taken from publication PMC5884652, “New antimicrobial peptide kills drug-resistant pathogens without detectable resistance” (Oncotarget, 2018).
Ends that are not written are not given here.

Columns and labels:
S. aureus 4761 = assay: microbe, parasite or virus in culture; assay type: cell-based, Staphylococcus aureus; settings: pH 7.4 (II); 10 mM sodium phosphate buffer, 10% LB; 37° C, 24 h; mean of 3 experiments
Source text: (§1) The method for peptide synthesis has been described in detail previously. E. coli ATCC 25922 (LB media), P. aeruginosa ATCC 15692 (NB+0.5% NaCl media), Listeria monocytogenes ATCC 3710 (LB media), Staphylococcus epidermidis ATCC 12228 (LB media), and S. aureus ATCC 29213 (TSB media) were obtained from the American Type Culture Collection (Manassas, VA, USA). Bacillus subtilis KCTC 1998 (LB media), Salmonella typhimurium KCTC 1926 (NB media), and Proteus vulgaris KCTC 2433 (NB media) were obtained from the Korean Collection for Type Cultures (Jeollabuk-do, Korea). E. coli CCARM 1238 was received from the Culture Collection of Antibiotic Resistant Microbes at Seoul Women’s University, Korea. Drug-resistant P. aeruginosa 3543, 3904, 3547, and 4007 and S. aureus 3126, 0027, 5157, 1635, 4761, 5159, 3359, 2122, 1630, 1870, 3511, 5156, and 3518 were resistant strains isolated from patients with otitis media in a Chonnam National University’s hospital.
(§2) The antibacterial activities of AMPs (melittin, clavaspirin, and its analogs) and conventional antibiotic drugs (erythromycin, gentamicin, ampicillin, and piperacidin) were determined using microdilution assays. Bacterial cells were cultured at 37° C in appropriate culture media at pH 5.5 or pH 7.4 until collection during the mid-log phase and suspended in 10 mM sodium phosphate buffer (pH 5.5 or pH 7.4) supplemented with 10% culture medium. Thereafter, 2× serial dilutions of each peptide (0.25–128 μM) or antibiotic (0.25–256 μM) were added to sterile 96-well plates, and aliquots of cell suspension (5 × 10^5 colony forming units (cfu)/mL) were seeded into each well. The samples were then incubated at 37° C for 24 h. At the end of the incubation, the minimum inhibitory concentrations (MICs) of the peptides were determined using a VERSA Max microplate reader (Molecular Devices Co., Sunnyvale, CA, USA) at a wavelength of 600 nm. […] MIC values were calculated as the mean of 3 independent experiments conducted in triplicate.

S. aureus 3518 = assay: microbe, parasite or virus in culture; assay type: cell-based, Staphylococcus aureus; settings: pH 7.4 (II); 10 mM sodium phosphate buffer, 10% LB; 37° C, 24 h; mean of 3 experiments
Source text: as §1, §2

S. aureus 1870 = assay: microbe, parasite or virus in culture; assay type: cell-based, Staphylococcus aureus; settings: pH 7.4 (II); 10 mM sodium phosphate buffer, 10% LB; 37° C, 24 h; mean of 3 experiments
Source text: as §1, §2

S. aureus 5156 = assay: microbe, parasite or virus in culture; assay type: cell-based, Staphylococcus aureus; settings: pH 7.4 (II); 10 mM sodium phosphate buffer, 10% LB; 37° C, 24 h; mean of 3 experiments
Source text: as §1, §2

S. aureus 3511 = assay: microbe, parasite or virus in culture; assay type: cell-based, Staphylococcus aureus; settings: pH 7.4 (II); 10 mM sodium phosphate buffer, 10% LB; 37° C, 24 h; mean of 3 experiments
Source text: as §1, §2

E. coli = assay: Time-kill kinetics; assay type: cell-based; settings: pH 5.5 and pH 7.4, peptides at their respective MICs
Description: E. coli were grown overnight in LB broth (pH 5.5 or pH 7.4) and diluted to an OD600 of 0.05. CSP-4 was then added so that the final concentration was either the MIC or 1/2 MIC. E. coli cells were then sampled at 1-min intervals for the first 10 min and at 10-min intervals thereafter for 2 h. The cultures were then diluted 50-fold in PBS buffer and plated on LB agar. Colonies were counted after 24 h.

S. aureus ATCC 29213 = assay: microbe, parasite or virus in culture
Description: To determine the MICs of CSP-4, a single colony of S. aureus ATCC 29213 was cultured at 37° C in tryptic soy broth, as well as daptomycin and linezolid, which served as commercial antibiotic positive controls. […] For each agent, the MIC was determined daily for 29 days at pH 5.5 and/or for 8 days at pH 7.4 using cells from wells containing half the MIC (1/2 MIC well). […] All MICs were determined in duplicate.

[1] = tested on: S. aureus CCARM 0027-infected hairless mice; assay: Dermal infection and inflammation model; assay type: in vivo, mouse
Description: Male hairless mouse (aged 6 weeks, 5 mouse/group, total 7 groups) were injected intraepidermal with S. aureus CCARM 0027 (1 × 10^8 cfu/ml). The CSP-4 peptide (200, 100, 50, 25 μg/ml) was injected intraeptidermal into mice at 1 h after the S. aureus CCARM 0027 injection, samples of inflamed skin was collected after 7 days and 4-μm-thick sections were prepared as described in the preceding section. Each sample was then incubated for 30 min at 24° C with 5% bovine serum albumin, mouse anti-Toll-like receptor-2 (TLR-2) (AbFrontier, AB24192), mouse monoclonal anti-TNF-α (AbFrontier, AB1793), and mouse polyclonal anti-IL-1β (AbFrontier, AB1413). The samples were then washed with Tris-buffered saline containing Tween 20 buffer and incubated with HRP LF-SA5001-conjugated goat anti-mouse IgG, and stained with hematoxylin and eosin. The stained sections were examined under a fluorescence microscope.
Western blot analysis was performed as using changes in protein expression. Briefly, proteins extracted from the hairless mouse skin were separated for 3 h using 15% SDS-polyacrylamide gel electrophoresis and transferred to polyvinylidene fluoride membranes (Bio-Rad, Hercules, CA, USA) for 1 h at 90 V. The membranes were then incubated overnight at 4° C in 5% skim milk containing anti-GAPDH (LF-PA0018; Santa Cruz Biotechnology, Santa Cruz, CA, USA), mouse anti-TLR2 (AbFrontier, AB24192), mouse anti-NF-κB, (Santa Cruz Biotechnology, SC-71675), mouse anti-TNF-α (AbFrontier, AB1793), mouse anti-IL-1β (AbFrontier, AB1413), and mouse anti-cathelicidin (AbFrontier, AB93357). The membranes were then washed in Tris-buffered saline containing Tween 20 and incubated with the horseradish peroxidase (HRP)-conjugated secondary antibodies LF-SA5002 goat anti-rabbit IgG and LF-SA5001 goat anti-mouse IgG. The blots were developed using a Western Blot Detection kit (AbFrontier, LF-QC0103).
For scanning electron microscopy (SEM), S. aureus cells were cultured in LB medium (pH 5.5 or pH 7.4), washed 3 times with 10 mM sodium phosphate buffer, and stirred at 4000 rpm. CSP-4 was added to the cells and incubated at 25° C. After incubation, the cells were fixed in 4% glutaraldehyde for 20 min and dehydrated in 50% and then 100% ethanol (10 min each step) at 37° C. In addition, 7 days after inducing inflammation in hairless mouse skin tissue by infection with drug-resistant S. aureus CCARM 0027 strain or E. coli bacteria, samples of skin tissue were isolated, washed in PBS, fixed in 4% paraformaldehyde overnight at 4° C, and dehydrated in 50% and then 100% ethanol (2 h each step) at 37° C. Samples were then gold-coated and visualized by SEM (JSM-7100F; JEOL, Tokyo, Japan).

Substance: FLRFIGSVKHGKGHLVHHIGVAL-NH2 [CSP-4]
- MIC (S. aureus 4761): 8 µM
- MIC (S. aureus 3518): 8 µM
- MIC (S. aureus 1870): 8 µM
- MIC (S. aureus 5156): 8 µM
- MIC (S. aureus 3511): 8 µM
- Killing kinetics (E. coli): reduced bacterial growth faster than CSP
- MIC after 29 passages (S. aureus ATCC 29213; after exposure for 29 passages): 16 µM
- Increase of MIC (S. aureus ATCC 29213; after exposure for 29 passages, pH not given): approximately 2 ×
- Induction of drug resistance (S. aureus ATCC 29213; exposure for up to 29 passages): did not induce drug resistance
- Epidermal thickness and immune cell infiltration ([1]; 200 µg/mL and 100 µg/mL, skin collected after 7 days, hematoxylin and eosin): dose-dependent decrease
- TLR-2, NF-κB, TNF-α, IL-1β, and cathelicidin levels in skin ([1]; 200 μg/mL or 100 μg/mL, Western blot): concentration-dependent decreases
- Dermal collagen and elastin, uninfected mice treated with peptide alone ([1]; CSP-4 alone (200 µg/mL), SEM): not damaged
- Collagen and elastin damage in infected skin ([1]; SEM, 7 days after infection): dose-dependently reduced
